Measurements from patent publication US4751215A, “Process for increasing the sexual activity of birds and useful domestic mammals and for preparing spermatozoa suitable to their propagation” (INNOFINANCE Altalanos Innovacios Penzintezet, priority 1985, dated 1988).

Experiments:
Format in all cases: in vivo
[1] = test system: male turkeys; assay: Effect of gonadoliberin analogues on the sperm production of male turkeys (Table 5)
Excerpt: In a further experiment, the sperm production of male turkeys was raised by administering the following four compounds: […]

[2] = test system: blood plasma testosterone level; assay: Blood plasma testosterone level of ganders (Table 6); conditions: for Testosterone: Treated (n = 10)
Protocol: (§1) Ganders kept under large-scale conditions and propagated in a natural way were treated with 0.5 μg/kg of D-Phe^6,desGly^10 -GnRH ethylamide analogue every 2 days, altogether 3 times. […] This manifested itself in the rise of the copulation activity (Table 6).

[3] = test system: ganders; assay: Copulation activity / libido of ganders (Table 6); conditions: for No. of daily copulations: Treated (n = 10)
Protocol: as §1

[4] = test system: ganders; assay: Sperm production and sperm quality of ganders kept under natural conditions (Table 7)
Protocol: "Hungarian" and "Landes" ganders kept under natural conditions and divided to small groups were treated with 0.5 μg/kg of D-Phe^6,desGly^10 -GnRH ethylamide analogue every 2 days, altogether 3 times.

[5] = test system: male angora rabbits; assay: Enhancement of the sperm production of male rabbits; conditions: 3 μg every 2 days, 3 times
Protocol: In this experiment male angora rabbits showing a low libido were used from which no sperm could be obtained. The motility of the cells in their sperm was lower than 75%; thus, these animals could not be used for propagating. Of these animals 234 were treated with 3 μg of D-Phe^6,desGly^10 -GnRH ethylamide analogue every 2 days, altogether 3 times. […] These effects could be observed for several weeks; thus, the amount of the sperm usable for artificial insemination increased to its 2.5-fold value.

[6] = at the beginning of the experiment
[7] = 0.5 μg/kg every 2 days, 3 times
[8] = "Hungarian" ganders, sampling February 7
[9] = "Hungarian" ganders, sampling February 14
[10] = "Hungarian" ganders, sampling February 21
[11] = "Hungarian" ganders, sampling February 28
[12] = "Hungarian" ganders, sampling January 15 (before treatment)
[13] = "Hungarian" ganders, sampling January 31
[14] = "Hungarian" ganders, sampling March 7
[15] = "Hungarian" ganders, sampling March 12
[16] = "Landes" ganders, sampling February 7
[17] = "Landes" ganders, sampling February 14
[18] = "Landes" ganders, sampling February 21
[19] = "Landes" ganders, sampling February 28
[20] = "Landes" ganders, sampling January 15 (before treatment)
[21] = "Landes" ganders, sampling January 31
[22] = "Landes" ganders, sampling March 7
[23] = "Landes" ganders, sampling March 12

Compound CCNC(=O)[C@@H]1CCCN1C(=O)[C@H](CCCNC(=N)N)NC(=O)[C@H](CC(C)C)NC(=O)[C@@H](Cc1ccccc1)NC(=O)[C@H](Cc1ccc(O)cc1)NC(=O)[C@H](CO)NC(=O)[C@H](Cc1c[nH]c2ccccc12)NC(=O)[C@H](Cc1c[nH]cn1)NC(=O)[C@@H]1CCC(=O)N1 [Compound "C", D-Phe^6,desGly^10 -GnRH ethylamide] has a Sperm production ([1]; after 30 days) of 0.30 ml/animal, a Sperm production ([1]; after 60 days) of 0.32 ml/animal and a Sperm production ([1]; after 90 days) of 0.34 ml/animal. For the same compound, the Sperm production ([1]; after 120 days) was 0.30 ml/animal, the Sperm production [1, 6] was 0.21 ml/animal and the “blood plasma testosterone level (in words)” value [2, 7] was “significantly raised”. The Testosterone ([2]; sampling October 1) was 390 ± 78 pg/mL, the Testosterone ([2]; sampling September 3) was 378 ± 142 pg/mL and the Testosterone ([2]; sampling September 10) was 470 ± 133 pg/mL. The Testosterone ([2]; sampling September 17) was 879 ± 145 pg/mL, the Testosterone ([2]; sampling September 24) was 695 ± 125 pg/mL and the “libido of the animals” value [3, 7] was “significantly raised”. For the same compound, the “duration of the high copulation activity” value ([3]; 0.5 μg/kg, ganders) was “maintained at this high level for one additional month”, the “No. of daily copulations” value ([3]; October 1) was 10 and the “No. of daily copulations” value ([3]; September 3) was 9. The “No. of daily copulations” value ([3]; September 10) was 7, the “No. of daily copulations” value ([3]; September 17) was 12 and the “No. of daily copulations” value ([3]; September 24) was 13. For the same compound, the “duration of the sperm production increase” value ([4]; 0.5 μg/kg every 2 days, 3 times, "Hungarian" and "Landes" ganders) was “lasting for about one month and a half”, the Sperm ([4]; "Hungarian" ganders, 0.5 μg/kg on January 28, 30, February 1, sampling January 15 (before treatment)) was 0.19 mL and the “Motility of the spermatozoa” value [4, 8] was “good”. The No. of spermatozoa [4, 8] was 3.2 10^6 /mm^3, the “Ratio of dead + deficient cells” value [4, 8] was 8% and the Sperm [4, 8] was 0.48 mL. The “Motility of the spermatozoa” value [4, 9] was “good”, the No. of spermatozoa [4, 9] was 3.0 10^6 /mm^3 and the “Ratio of dead + deficient cells” value [4, 9] was 10%. For the same compound, the Sperm [4, 9] was 0.56 mL, the “Motility of the spermatozoa” value [4, 10] was “good” and the No. of spermatozoa [4, 10] was 2.9 10^6 /mm^3. For the same compound, the “Ratio of dead + deficient cells” value [4, 10] was 12%, the Sperm [4, 10] was 0.30 mL and the “Motility of the spermatozoa” value [4, 11] was “good”. For the same compound, the No. of spermatozoa [4, 11] was 2.9 10^6 /mm^3, the “Ratio of dead + deficient cells” value [4, 11] was 14% and the Sperm [4, 11] was 0.23 mL. For the same compound, the “Motility of the spermatozoa” value [4, 12] was “weak”, the No. of spermatozoa [4, 12] was 2.1 10^6 /mm^3 and the “Ratio of dead + deficient cells” value [4, 12] was 19%. For the same compound, the “Motility of the spermatozoa” value [4, 13] was “weak”, the No. of spermatozoa [4, 13] was 2.3 10^6 /mm^3 and the “Ratio of dead + deficient cells” value [4, 13] was 20%. For the same compound, the Sperm [4, 13] was 0.25 mL, the “Motility of the spermatozoa” value [4, 14] was “good” and the No. of spermatozoa [4, 14] was 3.1 10^6 /mm^3. The “Ratio of dead + deficient cells” value [4, 14] was 17%, the Sperm [4, 14] was 0.44 mL and the “Motility of the spermatozoa” value [4, 15] was “good”. For the same compound, the No. of spermatozoa [4, 15] was 3.0 10^6 /mm^3, the “Ratio of dead + deficient cells” value [4, 15] was 14% and the Sperm [4, 15] was 0.33 mL. For the same compound, the Sperm ([4]; "Landes" ganders, 0.5 μg/kg on January 28, 30, February 1, sampling January 15 (before treatment)) was 0.19 mL, the “Motility of the spermatozoa” value [4, 16] was “medium” and the No. of spermatozoa [4, 16] was 2.2 10^6 /mm^3. For the same compound, the “Ratio of dead + deficient cells” value [4, 16] was 19%, the Sperm [4, 16] was 0.32 mL and the “Motility of the spermatozoa” value [4, 17] was “good”. For the same compound, the No. of spermatozoa [4, 17] was 2.0 10^6 /mm^3, the “Ratio of dead + deficient cells” value [4, 17] was 16% and the Sperm [4, 17] was 0.45 mL. For the same compound, the “Motility of the spermatozoa” value [4, 18] was “medium”, the No. of spermatozoa [4, 18] was 2.0 10^6 /mm^3 and the “Ratio of dead + deficient cells” value [4, 18] was 19%. The Sperm [4, 18] was 0.38 mL, the “Motility of the spermatozoa” value [4, 19] was “medium” and the No. of spermatozoa [4, 19] was 2.2 10^6 /mm^3. The “Ratio of dead + deficient cells” value [4, 19] was 17%, the Sperm [4, 19] was 0.35 mL and the “Motility of the spermatozoa” value [4, 20] was “weak”. For the same compound, the No. of spermatozoa [4, 20] was 1.9 10^6 /mm^3, the “Ratio of dead + deficient cells” value [4, 20] was 23% and the “Motility of the spermatozoa” value [4, 21] was “medium”. The No. of spermatozoa [4, 21] was 2.0 10^6 /mm^3, the “Ratio of dead + deficient cells” value [4, 21] was 23% and the Sperm [4, 21] was 0.43 mL. For the same compound, the “Motility of the spermatozoa” value [4, 22] was “good”, the No. of spermatozoa [4, 22] was 1.9 10^6 /mm^3 and the “Ratio of dead + deficient cells” value [4, 22] was 20%. The Sperm [4, 22] was 0.18 mL, the “Motility of the spermatozoa” value [4, 23] was “medium” and the No. of spermatozoa [4, 23] was 1.8 10^6 /mm^3. For the same compound, the “Ratio of dead + deficient cells” value [4, 23] was 19%, the Sperm [4, 23] was 0.20 mL and the “increase of the amount of sperm usable for artificial insemination” value [5] was 2.5 fold. The “motility of spermatozoa in excess of the mean value (76%) of sperm from good males” value ([5]; in average, within 4 weeks after the treatment) was 10%, the “libido of the animals” value ([5]; low-libido male angora rabbits, within 4 weeks after the treatment) was “significantly increased” and the “sperm production relative to the average of sperm obtained from good males useful for breeding” value ([5]; weighed in ml, within 4 weeks after the treatment) was 80%.
“(Asp-α-anilide)^6,desGly^10 -GnRH [Compound "B"]” was tested, and the Sperm production ([1]; after 30 days) was 0.21 ml/animal, the Sperm production ([1]; after 60 days) was 0.28 ml/animal and the Sperm production [1, 6] was 0.18 ml/animal.
